Experimental data published in patent US20230172971A1, “ANTIBIOTIC AND ANTI-INFLAMMATORY COMPOSITIONS AND METHODS OF USE” (priority 2020, published 2023).

Experiments:
[1] = system: E. coli BAA-2452; experiment: H33342 bisbenzimide dye uptake assay, E. coli BAA-2452; assay type: cell-based, Escherichia coli; conditions: E. coli BAA-2452, 7×10^8 CFU/mL, non-lethal concentration
Protocol: Overnight culture of E. coli BAA-2452™ and K. pneumoniae BAA-2146™ were used to inoculate fresh CAMHB media for another 5 hr at 35° C. with shaking. Bacterial cells were collected by centrifugation at 6000 rpm for 40 min and resuspended in PBS. The OD600 of the cell suspension was adjusted to about 1.0 and kept at room temperature during the experiment. Aliquots (180 μL/well) of the cell suspension were transferred to a 96-well flat-bottom black plate in the format of column 1, PBS blank; column 2, untreated control cells; column 3, cells+potentiator (sub-lethal concentration). Five technical replicates of each group were conducted. Fluorescent probe Hoechst 33342 bisbenzimide (H33342) was added (20 μL) to each well with a final concentration of 5 μM. Fluorescence was read immediately after the addition of H33342 by a Tecan Infinite M20 plate reader with the excitation and emission filters of 355 and 460 nm for H33342. Fluorescence data were normalized to the emission before cells were added in the PBS control, and they were plotted against time to show the cellular uptake of H33342 over 10 min. Control experiments of dye+600-Da BPEI were unchanged from fluorescence emission values obtained with dye only.

[2] = system: MRSA OU11; experiment: Resazurin cell viability assay, MRSA OU11; assay type: cell-based, Staphylococcus aureus
Protocol: Cell viability assays with resazurin were performed with MRSA OU11 cells grown in TSB as similar to the procedure of cell-permeation assays until they reach a density of ˜7×10^9 CFU/mL. Then the cell culture was transferred into a 96-well plate (100 μL/well) for BPEI or polymyxin B (PmB) treatments at varied concentrations from 64-512 μg/mL. Controls of untreated and positive control of 5% bleach were also conducted. The plate was incubated at 37° C. overnight. Resazurin (50 μL; final concentration of 50 μg/mL) was then added and, after 1 hour of incubation, the fluorescence intensity was measured (λex=560 nm; λen, =590 nm).

[3] = system: Gram-negative bacteria; conditions: paradigm; cited from earlier work
[4] = system: Gram-positive bacteria; conditions: paradigm; cited from earlier work

Substance: polymyxin B
- intracellular accumulation of H33342 (fluorescence) vs untreated cells [1]: increases
- cell viability (resazurin) ([2]; MRSA OU11, 64 μg/mL PmB): greater cell death than 512 μg/mL 600-Da BPEI
- cell viability (resazurin) ([2]; MRSA OU11, 512 μg/mL PmB): complete loss of MRSA OU11 viability
- cell viability (resazurin) ([2]; MRSA OU11, ~7×10^9 CFU/mL, 64-512 μg/mL, overnight): more lethal
- MIC [3]: ≤ 2 µg/mL
- concentration required (MIC) [4]: ≥ 32 µg/mL
